We go through 1 compound from patent US8883862B2, “Method for controlled release of parathyroid hormone from cross-linked hyaluronic acid hydrogel” (Kaohsiung Medical University, priority 2012, dated 2014).

Broadly, the bioavailability is dose-corrected exposure relative to a reference, in per cent.

Each structure is given as a SMILES string. Where two headings read alike, the source gives them in different places.

The nature of series [1]: Stability of PTH(1-34) under UV exposure (ELISA). The following applies: 10 minutes of UV exposure. Type of series: physicochemical. The method, then: The hydrogel was fabricated by the photo-cross linking method. Briefly, 20 mg of methacrylated-hyaluronic acid (MeHA) was dissolved in 650 μL of stock solution (0.9% NaCl/4 mM HCl/0.1% BSA solution) and 100 μL of 0.07% (w/v) 12959 (Ciba specialty chemicals, Taiwan) was added to the solution. After complete dissolution, 250 μL of PTH(1-34) stock solution (10^−5 M) was added to the polymer solution and mixed completely. The mixture was transferred into glass syringe and exposed under UV light for 10 minutes. The resulting PTH/CLMH gel was washed with distilled water and then lyophilized. The morphology of the gel was examined using scanning electron microscopy (SEM) after gold coating of the samples on a stub.
The encapsulation and release kinetics are as follows: 200 μL of PTH(1-34)-loaded CLMH hydrogel (PTH/CLMH gel) suspended in 1 mL of 0.9% NaCl was crushed completely and collected the supernatant. Concentration of PTH(1-34) on the supernatant was measured using a commercially available PTH(1-34) ELISA kit following the manufacturer's instructions.
On the technique in general: ELISA stands for enzyme-linked immunosorbent assay.

The test system of series [2] is papain-induced OA. The experiment in a line: Papain-induced OA in rat knees, histology of articular cartilage (GAG, type II collagen). The following applies: OA group; intra-articular; PTH(1-34) 10 nM every 3 days, hydrogels every 10 days. Type of series: in vivo, Rats. The method, then: Rats were divided into the following 2 groups: OA group (OA induction with or without PTH(1-34) treatment) (n=5), non-OA group (n=5) injected with vehicle without PTH(1-34) treatment and OA induction. The right knees were the study joints. OA was induced in the right knees of rats in the OA groups with intra-articular injections of 20 ul of 4% papain solution and 20 ul of 0.03M cysteine. The injections were given with a 23-gauge needle via the patellar tendon on days 1, 4, and 7 of the example. In the OA group, after OA induction, the right knees were injected intra-articularly with 40 ul of 10 nM PTH(1-34) every 3 days or PTH/CLMH or CLMH every 10 days until rats were sacrificed. In the non-OA group, the same treatments were performed but without OA induction. Rats from each group were sacrificed by CO2 inhalation. Histologic analysis: After rats were sacrificed, the knees were harvested, and the tibia plateaus with articular cartilage were collected and fixed with 10% neutral buffered formalin prior to histologic preparation. The samples were then decalcified in 0.05M EDTA. The decalcified tibia articular samples were paraffin embedded, and […] microsections in the coronary plane were prepared. GAG was stained with Safranin O-fast green (1% Safranin 0 counterstained with 0.75% hematoxylin and then 1% fast green; Sigma) (dark color). […]

For series [3] the following is noted: pulmonary route, cited from earlier work.
The test system of series [4] is MC3T3-E1 (osteoblastic cells). The experiment in a line: Bioactivity of released PTH(1-34): cAMP contents in cells. The note with it: PTH(1-34) released from PTH/CLMH hydrogel at 2, 3, 4, 9, 10 and 11 days; 20 mins incubation. It is filed as cell-based. The method, then:
The activity of controlled released PTH(1-34) was determined by measuring cAMP contents in cells treated with released PTH(1-34). For these examples, the MC3T3-E1 (osteoblastic cells) was cultured in phenol red-free α-MEM supplemented with 10% fetal bovine serum and […] ascorbic acid. The Cells were seeded into 24-well plates at a density of 50,000 cells/well. 0.25 mM isobutylmethylxanthine was used to inhibit cAMP degradation and incubated with released PTH(1-34) for 20 mins. The cells were lysed directly in the medium by adding 0.1N HCl. Intracellular cAMP was measured using a commercially available immunoassay kit (cayman) following the manufacturer's instructions.
Statistical analysis: Three independent cultures for biochemical analysis were tested. Each example was repeated at least three times, and data (expressed as mean±SEM) from a representative example are shown. Statistical significance was evaluated by one-way analysis of variance (ANOVA), and multiple comparisons were performed by Student's t-test. A p<0.05 was considered significant.

`CC[C@H](C)[C@H](NC(=O)[C@H](CCC(=O)O)NC(=O)[C@H](CO)NC(=O)[C@@H](NC(=O)[C@@H](N)CO)C(C)C)C(=O)N[C@@H](CCC(N)=O)C(=O)N[C@@H](CC(C)C)C(=O)N[C@@H](CCSC)C(=O)N[C@@H](Cc1cnc[nH]1)C(=O)N[C@@H](CC(N)=O)C(=O)N[C@@H](CC(C)C)C(=O)NCC(=O)N[C@@H](CCCCN)C(=O)N[C@@H](Cc1cnc[nH]1)C(=O)N[C@@H](CC(C)C)C(=O)N[C@@H](CC(N)=O)C(=O)N[C@@H](CO)C(=O)N[C@@H](CCSC)C(=O)N[C@@H](CCC(=O)O)C(=O)N[C@@H](CCCN=C(N)N)C(=O)N[C@H](C(=O)N[C@@H](CCC(=O)O)C(=O)N[C@@H](Cc1c[nH]c2ccccc12)C(=O)N[C@@H](CC(C)C)C(=O)N[C@@H](CCCN=C(N)N)C(=O)N[C@@H](CCCCN)C(=O)N[C@@H](CCCCN)C(=O)N[C@@H](CC(C)C)C(=O)N[C@@H](CCC(N)=O)C(=O)N[C@@H](CC(=O)O)C(=O)N[C@H](C(=O)N[C@@H](Cc1cnc[nH]1)C(=O)N[C@@H](CC(N)=O)C(=O)N[C@@H](Cc1ccccc1)C(=O)O)C(C)C)C(C)C` [PTH(1-34), teriparatide]: the “stability of PTH(1-34) under UV exposure” value in series [1] was “no significant adverse effect”. In series [2], the “level of GAG in OA articular cartilage” value is “could reverse papain-induced OA changes by increasing GAG level”. Moreover, the values for the bioavailability in series [3] (inhalation of dry powders) and in series [3] (intratracheal instillation) were 34% and 40%, respectively. Moreover, the “expression of cAMP” value in series [4] was “increased expression of cAMP”.
